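Tested at 5 concentrations; 48 h exposure; 96-well plates; endpoints linearly interpolated, else capped at highest concentration. The concentration for full growth arrest is given as TGI.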
Columns and labels:
Assay in all cases: NCI anticancer screen, dose series, 48 h
[1] = system: UACC-257 melanoma
[2] = system: K-562 leukemia
[3] = system: CCRF-CEM leukemia
[4] = system: COLO 205 colon
[5] = system: MDA-MB-231 breast
[6] = system: SF-268 CNS
[7] = system: PC-3 prostate
[8] = system: RPMI-8226 leukemia
[9] = system: NCI-H23 lung
[10] = system: KM12 colon
[11] = system: RXF 393 renal
[12] = system: MDA-N
[13] = system: T-47D breast
[14] = system: HOP-62 NSCLC
[15] = system: ACHN renal
[16] = system: SK-MEL-5 melanoma
[17] = system: OVCAR-3 ovarian
[18] = system: U251 CNS
[19] = system: UO-31 renal
[20] = system: IGROV1 ovarian
[21] = system: MALME-3M melanoma
[22] = system: HL-60(TB) leukemia
[23] = system: EKVX NSCLC
[24] = system: NCI-H226 lung
[25] = system: BT-549 breast
[26] = system: MDA-MB-435
[27] = system: A549 NSCLC
[28] = system: HOP-92 NSCLC
[29] = system: MOLT-4 leukemia
[30] = system: HS 578T breast
[31] = system: SK-MEL-2 melanoma
[32] = system: SN12C renal
[33] = system: OVCAR-4 ovarian
[34] = system: M14 melanoma
[35] = system: CAKI-1 renal
[36] = system: NCI/ADR-RES ovarian
[37] = system: SW-620 colon
[38] = system: UACC-62 melanoma
[39] = system: SK-OV-3 ovarian
[40] = system: OVCAR-8 ovarian
[41] = system: TK-10 renal
[42] = system: SNB-19 CNS
[43] = system: HCT-15 colon
[44] = system: SF-295 CNS
[45] = system: HT29 colon
[46] = system: LOX IMVI melanoma
[47] = system: HCT-116 colon
[48] = system: OVCAR-5 ovarian
[49] = system: DU-145 prostate
[50] = system: SK-MEL-28 melanoma
[51] = system: 786-0 renal
[52] = system: NCI-H522 lung
[53] = system: SNB-75 CNS

Measured: TGI

Cc1ccccc1N=Nc1c(O)ccc2ccccc12
> 100 µM: [1] | [2] | [3] | [4] | [5] | [6] | [7] | [8] | [9] | [10] | [11] | [12] | [13] | [14] | [15] | [16] | [17] | [18] | [19] | [20] | [21] | [22] | [23] | [24] | [25] | [26] | [27] | [28] | [29] | [30] | [31] | [32] | [33] | [34] | [35] | [36] | [37] | [38] | [39] | [40] | [41] | [42] | [43] | [44] | [45] | [46] | [47] | [48] | [49] | [50] | [51] | [52] | [53]

Reference: PubChem BioAssay (NCI)
